Among the data in ChEMBL document CHEMBL1151387, “Constitutents of Magnolia Grandiflora. III. Toxic principle of the wood” (J Nat Prod, 1982) are LD50 and Activity values, retold here.

Molecules are shown by their SMILES. The source made the active and inactive calls. The calls are words filed in the database; no cut-off is given here.

Series [1] can be described thus: Toxicity in iv dosed mouse. As to conditions: in vivo. It is filed as organism-based.
Series [2] is described as follows: Toxicity in ip dosed mouse. The series is classed as organism-based. As to conditions: in vivo.
Series [3] has as its system Mus musculus. In words: Effect on behavioral activity in ip dosed mouse assessed as occurrence of mydriasis for 30 mins. It is filed as functional, organism-based.
Series [4] relates to Mus musculus. In words: Toxicity in ip dosed mouse assessed as labored breathing and depression at LD50. It is filed as organism-based. As to conditions: in vivo.
The test system of series [5] is Mus musculus. Description: Toxicity in ip dosed mouse assessed as death at LD50. The series is classed as organism-based. As to conditions: in vivo.

A word on the LD50: it is the dose at which mortality reaches 50%. Lower therefore signals a more toxic substance. `COc1ccc2c(c1O)-c1c(OC)c(OC)cc3c1[C@H](C2)[N+](C)(C)CC3.[Cl-]` had an LD50 in series [1] of 2.2 mg/kg.

In turn, `COc1ccc2c(c1O)-c1c(OC)c(OC)cc3c1[C@H](C2)[N+](C)(C)CC3.[I-]` returned an LD50 in series [2] of 10 mg/kg.

Take `COc1ccc2c(c1O)-c1c(O)c(OC)cc3c1[C@H](C2)[N+](C)(C)CC3` [MAGNOFLORINE]: the LD50 in series [2] came to 19.6 mg/kg. Moreover, the outcome with Mus musculus [3] was Active. The Activity with Mus musculus [4] came out at 5 min; with Mus musculus [5], 15 min.
